Converted amounts (≈) assume the structure as drawn.
Experiments:
Experiment in all cases: In vitro antibacterial evaluation: minimum inhibitory concentration (MIC), broth dilution method
Format in all cases: cell-based
Streptococcus sp. = details: broth dilution, 5×10^5 CFU/mL, 18 hours at 35° C.
Experimental: (§1) The minimum inhibitory concentration (MIC), the lowest concentration of the antibiotic which inhibits growth of the test organism, is determined by the broth dilution method using Muller-Hinton II […] (Baltimore Biological Laboratories) following the recommendations of the National Committee for Clinical Laboratory Standards [Methods for dilution antimicrobial susceptibility tests for bacteria that grow aerobically, approved standard M7-A2, National Committee for Clinical Laboratory Standards, Villanova, Pa].
(§2) An inoculum level of 5×10^5 CFU/mL, and a range of antibiotic concentrations (64-0.06 μg/mL) is used. […] The test organisms include a spectrum of Gram-positive bacteria comprised of Staphylococcus sp., Streptococcus sp. and Enterococcus sp. These organisms include recent clinical isolates that are resistant to methicillin, penicillin and/or vancomycin.

Staphylococcus sp. = details: for MIC Staphylococcus aureus (ATCC 29213): strain ATCC 29213; for MIC Staphylococcus aureus (GC 1131): strain GC 1131; for MIC Staphylococcus aureus (GC 3051): strain GC 3051; for MIC Staphylococcus aureus (GC 3053): strain GC 3053; for MIC Staphylococcus aureus (GC 4541): strain GC 4541; for MIC Staphylococcus aureus (GC 4542): strain GC 4542; for MIC Staphylococcus aureus-SMITH (GC 4543): strain GC 4543; for MIC Staphylococcus aureus (GC 4544): strain GC 4544; for MIC Staphylococcus aureus (GC 4545): strain GC 4545; for MIC Staphylococcus haemolyticus (GC 4546): strain GC 4546; for MIC Coagulase Negative Staphylococcus (GC 4547): strain GC 4547; for MIC Coagulase Negative Staphylococcus (GC 4548): strain GC 4548; for MIC Coagulase Negative Staphylococcus (GC 4549): strain GC 4549; for MIC Coagulase Negative Staphylococcus (GC 4551): strain GC 4551; for MIC Coagulase Negative Staphylococcus (GC 6257): strain GC 6257
Experimental: as §1, §2

Escherichia coli = details: 5×10^5 CFU/mL, 18 hours at 35° C.
Experimental: as §1, §2

Enterococcus sp. = details: broth dilution, 5×10^5 CFU/mL, 18 hours at 35° C.
Experimental: as §1, §2

[1] = broth dilution, 18 hours at 35° C.

SMILES: CCCCOC(=O)CCC1OCC2OC(OC3C(CO)OC(Oc4ccc(CC5NC(=O)C(C(C)c6ccccc6)NC(=O)CNC(=O)C(CO)NC(=O)C(C(O)C6CNC(=N)N6C6OC(CO)C(O)C(O)C6O)NC(=O)C(C(O)C6CNC(=N)N6)NC5=O)cc4)C(O)C3O)C(O)C(O)C2O1 (stereo not drawn) [Example 114, Cyclo[glycyl-β-methylphenylalanyl-O-[4-O-[4,6-O-(4-butoxy-4-oxobutylidene)hexopyranosyl]-hexopyranosyl]tyrosyl-3-(2-iminoimidazolidin-4-yl)seryl-3-(3-hexopyranosyl-2-iminoimidazolidin-4-yl)serylseryl]]
- MIC Streptococcus agalactiae (GC 4564) (Streptococcus sp.): 0.5 µg/mL (≈ 0.348 µM)
- MIC Streptococcus pneumoniae (GC 1894) (Streptococcus sp.): <0.06 µg/mL
- MIC Streptococcus pneumoniae (GC 4565) (Streptococcus sp.): 0.25 µg/mL (≈ 0.174 µM)
- MIC Streptococcus pneumonine (ATCC 6301) (Streptococcus sp.): 0.12 µg/mL (≈ 0.0836 µM)
- MIC Streptococcus pyogenes (GC 4563) (Streptococcus sp.): 0.5 µg/mL (≈ 0.348 µM)
- MIC Staphylococcus aureus (ATCC 29213) (Staphylococcus sp.): 2 µg/mL (≈ 1.39 µM)
- MIC Staphylococcus aureus (ATCC 29213) (Staphylococcus sp.; [1]): 2 µg/mL (≈ 1.39 µM)
- MIC Staphylococcus aureus (GC 1131) (Staphylococcus sp.): 2 µg/mL (≈ 1.39 µM)
- MIC Staphylococcus aureus (GC 1131) (Staphylococcus sp.; [1]): 2 µg/mL (≈ 1.39 µM)
- MIC Staphylococcus aureus (GC 3051) (Staphylococcus sp.): 2 µg/mL (≈ 1.39 µM)
- MIC Staphylococcus aureus (GC 3051) (Staphylococcus sp.; [1]): 2 µg/mL (≈ 1.39 µM)
- MIC Staphylococcus aureus (GC 3053) (Staphylococcus sp.): 2 µg/mL (≈ 1.39 µM)
- MIC Staphylococcus aureus (GC 3053) (Staphylococcus sp.; [1]): 2 µg/mL (≈ 1.39 µM)
- MIC Staphylococcus aureus (GC 4541) (Staphylococcus sp.): 2 µg/mL (≈ 1.39 µM)
- MIC Staphylococcus aureus (GC 4541) (Staphylococcus sp.; [1]): 2 µg/mL (≈ 1.39 µM)
- MIC Staphylococcus aureus (GC 4542) (Staphylococcus sp.): 1 µg/mL (≈ 0.697 µM)
- MIC Staphylococcus aureus (GC 4542) (Staphylococcus sp.; [1]): 1 µg/mL (≈ 0.697 µM)
- MIC Staphylococcus aureus-SMITH (GC 4543) (Staphylococcus sp.; 18 hours at 35° C.): 2 µg/mL (≈ 1.39 µM)
- MIC Staphylococcus aureus-SMITH (GC 4543) (Staphylococcus sp.; [1]): 2 µg/mL (≈ 1.39 µM)
- MIC Staphylococcus aureus (GC 4544) (Staphylococcus sp.): 2 µg/mL (≈ 1.39 µM)
- MIC Staphylococcus aureus (GC 4544) (Staphylococcus sp.; [1]): 2 µg/mL (≈ 1.39 µM)
- MIC Staphylococcus aureus (GC 4545) (Staphylococcus sp.): 2 µg/mL (≈ 1.39 µM)
- MIC Staphylococcus aureus (GC 4545) (Staphylococcus sp.; [1]): 2 µg/mL (≈ 1.39 µM)
- MIC Staphylococcus haemolyticus (GC 4546) (Staphylococcus sp.): 1 µg/mL (≈ 0.697 µM)
- MIC Staphylococcus haemolyticus (GC 4546) (Staphylococcus sp.; [1]): 1 µg/mL (≈ 0.697 µM)
- MIC Coagulase Negative Staphylococcus (GC 4547) (Staphylococcus sp.): 2 µg/mL (≈ 1.39 µM)
- MIC Coagulase Negative Staphylococcus (GC 4547) (Staphylococcus sp.; [1]): 2 µg/mL (≈ 1.39 µM)
- MIC Coagulase Negative Staphylococcus (GC 4548) (Staphylococcus sp.): 1 µg/mL (≈ 0.697 µM)
- MIC Coagulase Negative Staphylococcus (GC 4548) (Staphylococcus sp.; [1]): 1 µg/mL (≈ 0.697 µM)
- MIC Coagulase Negative Staphylococcus (GC 4549) (Staphylococcus sp.): 2 µg/mL (≈ 1.39 µM)
- MIC Coagulase Negative Staphylococcus (GC 4549) (Staphylococcus sp.; [1]): 2 µg/mL (≈ 1.39 µM)
- MIC Coagulase Negative Staphylococcus (GC 4551) (Staphylococcus sp.): 2 µg/mL (≈ 1.39 µM)
- MIC Coagulase Negative Staphylococcus (GC 4551) (Staphylococcus sp.; [1]): 2 µg/mL (≈ 1.39 µM)
- MIC Coagulase Negative Staphylococcus (GC 6257) (Staphylococcus sp.): 1 µg/mL (≈ 0.697 µM)
- MIC Coagulase Negative Staphylococcus (GC 6257) (Staphylococcus sp.; [1]): 1 µg/mL (≈ 0.697 µM)
- MIC Escherichia coli (ATCC 25922) (Escherichia coli): 64 µg/mL (≈ 44.6 µM)
- MIC Escherichia coli (GC 4559) (Escherichia coli): 64 µg/mL (≈ 44.6 µM)
- MIC Escherichia coli (GC 4560) (Escherichia coli): 1 µg/mL (≈ 0.697 µM)
- MIC Enterococccus avium (GC 4558) (Enterococcus sp.): 8 µg/mL (≈ 5.57 µM)
- MIC Enterococccus faecalis (ATCC 29212) (Enterococcus sp.): 4 µg/mL (≈ 2.79 µM)
- MIC Enterococccus faecalis (GC 2691) (Enterococcus sp.): 4 µg/mL (≈ 2.79 µM)
- MIC Enterococccus faecalis (GC 3059) (Enterococcus sp.): 8 µg/mL (≈ 5.57 µM)
- MIC Enterococccus faecalis (GC 4552) (Enterococcus sp.): 4 µg/mL (≈ 2.79 µM)
- MIC Enterococccus faecalis (GC 4553) (Enterococcus sp.): 8 µg/mL (≈ 5.57 µM)
- MIC Enterococccus faecalis (GC 4554) (Enterococcus sp.): 4 µg/mL (≈ 2.79 µM)
- MIC Enterococccus faecalis (GC 6189) (Enterococcus sp.): 4 µg/mL (≈ 2.79 µM)
- MIC Enterococccus faecium (GC 2243) (Enterococcus sp.): 4 µg/mL (≈ 2.79 µM)
- MIC Enterococccus faecium (GC 4556) (Enterococcus sp.): 4 µg/mL (≈ 2.79 µM)
- MIC Enterococccus faecium (GC 4557) (Enterococcus sp.): 2 µg/mL (≈ 1.39 µM)
- MIC Enterococcus faecalis (GC 2242) (Enterococcus sp.): 4 µg/mL (≈ 2.79 µM)

From patent US8247211B2, “Glycopeptide antibiotics” (American Cyanamid Company, priority 2001, dated 2012)
